How the values were obtained:
GABAA receptor α1β2γ2 = target: T1, GABAA receptor α1β2γ2 (Homo sapiens, UniProt P14867+P47870); assay: Patch clamp electrophysiology, Qpatch in Ltk cells; type: cell-based; settings: 10 μM test article, GABA EC20 2 μM, read-out: GABA (α1β2γ2) Qpatch in Ltk, % efficacy at 10 μM
T1 construct: expressed in transfected cells
Method: Patch Clamp Electrophysiology of Recombinant α1β2γ2 and α4β3δ GABAA Receptors
Cellular electrophysiology is used to measure the pharmacological properties of our GABAA receptor modulators in heterologous cell systems. Each compound is tested for its ability to affect GABA mediated currents at a submaximal agonist dose (GABA EC20=2 μM). LTK cells are stably transfected with the α1β2γ2 subunits of the GABA receptor and CHO cells are transiently transfected with the α4β3δ subunits via the Lipofecatamine method. Cells were passaged at a confluence of about 50-80% and then seeded onto 35 mm sterile culture dishes containing 2 ml culture complete medium without antibiotics or antimycotics. Confluent clusters of cells are electrically coupled (Pritchett et al., Science, 1988, 242, 1306-1308.). Because responses in distant cells are not adequately voltage clamped and because of uncertainties about the extent of coupling (Verdoorn et al., Neuron 1990, 4, 919-928.), cells were cultivated at a density that enables the recording of single cells (without visible connections to other cells).
Whole cell currents were measured with HEKA EPC-10 amplifiers using PatchMaster software or by using the high throughput QPatch platform (Sophion). Bath solution for all experiments contained (in mM): NaCl 137 mM, KCl 4 mM, CaCl2 1.8 mM, MgCl2 1 mM, HEPES 10 mM, D-Glucose 10 mM, pH (NaOH) 7.4. In some cases 0.005% cremophor was also added. Intracellular (pipette) solution contained: KCl 130 mM, MgCl2 1 mM, Mg-ATP 5 mM, HEPES 10 mM, EGTA 5 mM, pH 7.2. During experiments, cells and solutions were maintained at room temperature (19° C.-30° C.). For manual patch clamp recordings, cell culture dishes were placed on the dish holder of the microscope and continuously perfused (1 ml/min) with bath solution. After formation of a Gigaohm seal between the patch electrodes and the cell (pipette resistance range: 2.5 MΩ-6.0 MΩ; seal resistance range: >1 GΩ) the cell membrane across the pipette tip was ruptured to assure electrical access to the cell interior (whole-cell patch-configuration). For experiments using the QPatch system, cells were transferred as suspension to the QPatch system in the bath solution and automated whole cell recordings were performed.
Cells were voltage clamped at a holding potential of −80 mV. For the analysis of test articles, GABA receptors were stimulated by 2 μM GABA after sequential pre-incubation of increasing concentrations of the test article. Pre-incubation duration was 30 s and the duration of the GABA stimulus was 2 s. Test articles were dissolved in DMSO to form stock solutions (10 mM). Test articles were diluted to 0.01, 0.1, 1, and 10 μM in bath solution. All concentrations of test articles were tested on each cell. The relative percentage potentiation was defined as the peak amplitude in response to GABA EC20 in the presence of the test article divided by the peak amplitude in response to GABA EC20 alone, multiplied by 100.

[1] = target: [35S]-TBPS binding, rat brain cortical membranes (GABA receptor complex); assay: Steroid inhibition of [35S]-TBPS binding; settings: 3 nM [35S]-TBPS, 5 μM GABA
Method: Steroid Inhibition of TBPS Binding
[35S]-t-Butylbicyclophosphorothionate (TBPS) binding assays using rat brain cortical membranes in the presence of 5 μM GABA has been described (Gee et al, J. Pharmacol. Exp. Ther. 1987, 241, 346-353; Hawkinson et al, Mol. Pharmacol. 1994, 46, 977-985; Lewin, A. H et al., Mol. Pharmacol. 1989, 35, 189-194).
Briefly, cortices are rapidly removed following decapitation of carbon dioxide-anesthetized Sprague-Dawley rats (200-250 g). The cortices are homogenized in 10 volumes of ice-cold 0.32 M sucrose using a glass/teflon homogenizer and centrifuged at 1500×g for 10 min at 4° C. The resultant supernatants are centrifuged at 10,000×g for 20 min at 4° C. to obtain the P2 pellets. The P2 pellets are resuspended in 200 mM NaCl/50 mM Na-K phosphate pH 7.4 buffer and centrifuged at 10,000×g for 10 min at 4° C. This washing procedure is repeated twice and the pellets are resuspended in 10 volumes of buffer. Aliquots (100 μL) of the membrane suspensions are incubated with 3 nM [^35S]-TBPS and 5 μL aliquots of test drug dissolved in dimethyl sulfoxide (DMSO) (final 0.5%) in the presence of 5 μM GABA. The incubation is brought to a final volume of 1.0 mL with buffer. Nonspecific binding is determined in the presence of 2 μM unlabeled TBPS and ranged from 15 to 25%. Following a 90 min incubation at room temp, the assays are terminated by filtration through glass fiber filters (Schleicher and Schuell No. 32) using a cell harvester (Brandel) and rinsed three times with ice-cold buffer. Filter bound radioactivity is measured by liquid scintillation spectrometry. Non-linear curve fitting of the overall data for each drug averaged for each concentration is done using Prism (GraphPad). […] The concentration of test compound producing 50% inhibition (IC50) of specific binding and the maximal extent of inhibition (Imax) are determined for the individual experiments with the same model used for the overall data and then the means±SEM.s of the individual experiments are calculated.
Various compounds are or can be screened to determine their potential as modulators of [^35S]-TBPS binding in vitro. These assays are or can be performed in accordance with the above discussed procedures.

T1 sequence (P14867 28-456): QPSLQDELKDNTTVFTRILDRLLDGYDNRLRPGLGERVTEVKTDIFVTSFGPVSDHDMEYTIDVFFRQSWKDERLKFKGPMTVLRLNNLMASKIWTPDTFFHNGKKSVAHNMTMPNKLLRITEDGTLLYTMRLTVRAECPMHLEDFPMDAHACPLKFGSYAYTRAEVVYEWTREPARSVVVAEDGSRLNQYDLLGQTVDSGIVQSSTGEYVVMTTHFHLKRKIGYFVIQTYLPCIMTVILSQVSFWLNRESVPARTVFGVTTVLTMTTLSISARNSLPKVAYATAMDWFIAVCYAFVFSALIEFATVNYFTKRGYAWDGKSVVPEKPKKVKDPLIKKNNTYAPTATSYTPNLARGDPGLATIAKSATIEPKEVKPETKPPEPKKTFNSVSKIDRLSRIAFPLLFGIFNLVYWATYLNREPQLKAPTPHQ
T1 sequence (P47870 25-512 limits assumed): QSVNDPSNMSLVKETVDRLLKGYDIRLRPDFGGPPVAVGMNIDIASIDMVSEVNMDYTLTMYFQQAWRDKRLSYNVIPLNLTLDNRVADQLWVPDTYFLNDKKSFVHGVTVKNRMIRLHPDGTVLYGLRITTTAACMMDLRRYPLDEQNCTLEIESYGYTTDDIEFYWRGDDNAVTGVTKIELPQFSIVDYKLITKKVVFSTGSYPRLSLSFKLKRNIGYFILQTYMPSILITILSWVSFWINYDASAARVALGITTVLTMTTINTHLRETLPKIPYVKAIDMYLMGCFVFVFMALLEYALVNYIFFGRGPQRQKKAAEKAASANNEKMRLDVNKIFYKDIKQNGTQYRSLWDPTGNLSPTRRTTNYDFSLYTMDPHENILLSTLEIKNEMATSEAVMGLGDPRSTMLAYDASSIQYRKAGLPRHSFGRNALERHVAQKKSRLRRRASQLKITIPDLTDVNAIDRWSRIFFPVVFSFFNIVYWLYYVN
T1 sequence (P18507 40-475 partner): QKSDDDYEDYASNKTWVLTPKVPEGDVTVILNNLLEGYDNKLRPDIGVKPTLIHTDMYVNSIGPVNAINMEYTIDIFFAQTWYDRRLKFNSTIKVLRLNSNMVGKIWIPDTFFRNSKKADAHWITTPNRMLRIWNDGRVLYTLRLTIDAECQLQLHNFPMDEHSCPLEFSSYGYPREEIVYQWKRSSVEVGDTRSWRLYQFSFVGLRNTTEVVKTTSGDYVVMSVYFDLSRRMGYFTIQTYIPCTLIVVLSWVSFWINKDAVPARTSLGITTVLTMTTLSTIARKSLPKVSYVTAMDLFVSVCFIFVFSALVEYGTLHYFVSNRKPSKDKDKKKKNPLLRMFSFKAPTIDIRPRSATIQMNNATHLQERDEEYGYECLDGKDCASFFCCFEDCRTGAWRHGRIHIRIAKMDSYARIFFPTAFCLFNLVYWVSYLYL

Compound | Emax at 10 µM (GABAA receptor α1β2γ2) [%] | IC50 [1] [µM]
C[C@]12CC[C@H]3[C@@H](CC[C@@H]4C[C@@](O)(CF)CC[C@@H]43)[C@@H]1CC[C@@H]2C(=O)Cn1cccn1 [SA-31] | 100 to 500 | 0.1 to 0.5
C[C@@]1(O)CC[C@@H]2[C@H]3CC[C@]4(C)[C@@H](C(=O)Cn5cccn5)CC[C@H]4[C@@H]3C[C@@H](F)[C@@H]2C1 [SA-25] |  | ≥ 0.5
CO[C@H]1C[C@H]2[C@@H](CC[C@@H]3[C@@H]2CC[C@]2(C)[C@@H](C(=O)Cn4cccn4)CC[C@@H]32)C[C@]1(C)O [SB-19] | > 500 | 0.1 to 0.5
C[C@]12CC[C@H]3[C@@H](CC[C@H]4C[C@@](O)(CF)CC[C@@H]43)[C@@H]1CC[C@@H]2C(=O)Cn1cc(C#N)cn1 [SB-22] | > 500 | 0.1 to 0.5
CCOC[C@@]1(O)CC[C@H]2[C@@H](CC[C@@H]3[C@@H]2CC[C@]2(C)[C@@H](C(=O)Cn4cc(C#N)cn4)CC[C@@H]32)C1 [SB-9] | 100 to 500 | 
CSc1cnn(CC(=O)[C@H]2CC[C@H]3[C@@H]4C[C@@H](F)[C@H]5C[C@](C)(O)CC[C@@H]5[C@H]4CC[C@]23C)c1 [SB-14] | 100 to 500 | 
C[C@]12CC[C@H]3[C@@H](CC[C@@H]4C[C@@](O)(CF)CC[C@@H]43)[C@@H]1CC[C@@H]2C(=O)Cn1cc(S(C)(=O)=O)cn1 [SA-33] |  | ≥ 0.5
CC[C@@]1(O)CC[C@H]2[C@H](CC[C@@H]3[C@@H]2CC[C@]2(C)[C@@H](C(=O)Cn4cc(C#N)cn4)CC[C@@H]32)C1 [SA-30] | 100 to 500 | 
CCOC(=O)c1cnn(CC(=O)[C@H]2CC[C@H]3[C@@H]4CC[C@@H]5C[C@](C)(O)CC[C@@H]5[C@H]4CC[C@]23C)c1 [SA-3] | > 500 | < 0.01
C[C@@H]1C[C@H]2[C@@H](CC[C@@H]3[C@@H]2CC[C@]2(C)[C@@H](C(=O)Cn4cccn4)CC[C@@H]32)C[C@]1(C)O [SB-18] | 100 to 500 | 0.1 to 0.5
C[C@@]1(O)CC[C@H]2[C@@H](CC[C@@H]3[C@@H]2CC[C@]2(C)[C@@H](C(=O)Cn4cc(S(C)(=O)=O)cn4)CC[C@@H]32)C1 [SB-3] |  | ≥ 0.5
CSc1cnn(CC(=O)[C@H]2CC[C@H]3[C@@H]4CC[C@@H]5C[C@](C)(O)CC[C@@H]5[C@H]4CC[C@]23C)c1 [SA-18] | > 500 | 
C[C@@]1(O)CC[C@H]2[C@H](CC[C@@H]3[C@@H]2CC[C@]2(C)[C@@H](C(=O)Cn4cc(C(F)(F)F)cn4)CC[C@@H]32)C1 [SA-14] | 100 to 500 | 
Cc1cn(CC(=O)[C@H]2CC[C@H]3[C@@H]4CC[C@@H]5C[C@](C)(O)CC[C@@H]5[C@H]4CC[C@]23C)nc1C [SA-15] | 100 to 500 | 
CCOC[C@@]1(O)CC[C@H]2[C@@H](CC[C@@H]3[C@@H]2CC[C@]2(C)[C@@H](C(=O)Cn4cccn4)CC[C@@H]32)C1 [SB-8] |  | ≥ 0.5
CC[C@@]1(O)CC[C@H]2[C@@H](CC[C@@H]3[C@@H]2CC[C@]2(C)[C@@H](C(=O)Cn4cc(C#N)cn4)CC[C@@H]32)C1 [SB-21] | 100 to 500 | 

Compound | Emax at 10 µM (GABAA receptor α1β2γ2) [%] | IC50 [1] [µM]
COC[C@@]1(O)CC[C@H]2[C@@H](CC[C@@H]3[C@@H]2CC[C@]2(C)[C@@H](C(=O)Cn4cc(S(C)(=O)=O)cn4)CC[C@@H]32)C1 [SB-7] |  | ≥ 0.5
CC[C@@]1(O)CC[C@H]2[C@H](CC[C@@H]3[C@@H]2CC[C@]2(C)[C@@H](C(=O)Cn4cccn4)CC[C@@H]32)C1 [SA-35] | 100 to 500 | 0.1 to 0.5
C[C@]12CC[C@H]3[C@@H](CC[C@@H]4C[C@@](O)(C(F)F)CC[C@@H]43)[C@@H]1CC[C@@H]2C(=O)Cn1cc(C#N)cn1 [SA-28] | > 500 | 
CCc1cnn(CC(=O)[C@H]2CC[C@H]3[C@@H]4CC[C@@H]5C[C@](C)(O)CC[C@@H]5[C@H]4CC[C@]23C)c1 [SA-16] | > 500 | 
Cc1cnn(CC(=O)[C@H]2CC[C@H]3[C@@H]4C[C@@H](F)[C@H]5C[C@](C)(O)CC[C@@H]5[C@H]4CC[C@]23C)c1 [SB-12] | 100 to 500 | 
C[C@]12CC[C@H]3[C@@H](CC[C@@H]4C[C@@](O)(C(F)F)CC[C@@H]43)[C@@H]1CC[C@@H]2C(=O)Cn1cccn1 [SA-27] | 100 to 500 | 0.1 to 0.5
COC[C@@]1(O)CC[C@H]2[C@@H](CC[C@@H]3[C@@H]2CC[C@]2(C)[C@@H](C(=O)Cn4cccn4)CC[C@@H]32)C1 [SB-4] | > 500 | 0.1 to 0.5
C[S+]([O-])c1cnn(CC(=O)[C@H]2CC[C@H]3[C@@H]4CC[C@@H]5C[C@](C)(O)CC[C@@H]5[C@H]4CC[C@]23C)c1 (stereo partly drawn) [SA-20] | 100 to 500 | 
CC[C@@]1(O)CC[C@H]2[C@@H](CC[C@@H]3[C@@H]2CC[C@]2(C)[C@@H](C(=O)Cn4cccn4)CC[C@@H]32)C1 [SB-20] |  | ≥ 0.5
C[C@]12CC[C@H]3[C@@H](CC[C@@H]4C[C@@](O)(C(F)F)CC[C@@H]43)[C@@H]1CC[C@@H]2C(=O)Cn1cc(S(C)(=O)=O)cn1 [SA-29] |  | ≥ 0.5
C[C@]12CC[C@H]3[C@@H](CC[C@H]4C[C@@](O)(CF)CC[C@@H]43)[C@@H]1CC[C@@H]2C(=O)Cn1cccn1 [SB-23] | 100 to 500 | 0.1 to 0.5
COC[C@@]1(O)CC[C@H]2[C@H](CC[C@@H]3[C@@H]2CC[C@]2(C)[C@@H](C(=O)Cn4cccn4)CC[C@@H]32)C1 [SA-23] | > 500 | 0.1 to 0.5
C[C@@]1(O)CC[C@@H]2[C@H]3CC[C@]4(C)[C@@H](C(=O)Cn5ccc(C#N)n5)CC[C@H]4[C@@H]3C[C@@H](F)[C@H]2C1 [SB-13] | 100 to 500 | 
Cc1cc(C)n(CC(=O)[C@H]2CC[C@H]3[C@@H]4CC[C@@H]5C[C@](C)(O)CC[C@@H]5[C@H]4CC[C@]23C)n1 [SA-12] | 100 to 500 | 0.01 to 0.05
C[C@@]1(O)CC[C@H]2[C@H](CC[C@@H]3[C@@H]2CC[C@]2(C)[C@@H](C(=O)Cn4cc(F)cn4)CC[C@@H]32)C1 [SA-21] | > 500 | 

From patent US12201640B2, “19-nor C3,3-disubstituted C21-n-pyrazolyl steroids and methods of use thereof” (Sage Therapeutics, Inc., priority 2013, dated 2025)
